According to patent US10287255B2, “Compounds as histone deacetylase 6 inhibitors and pharmaceutical compositions comprising the same” (CHONG KUN DANG PHARMACEUTICAL CORP., priority 2014, dated 2019):

Legend:
human recombinant HDAC1 = molecular target: T1, human recombinant HDAC1 (Homo sapiens, UniProt Q13547); assay: HDAC1 enzyme activity inhibition assay (in vitro, fluorimetric); assay type: biochemical; settings: human recombinant HDAC1, fluorimetric kit, 30° C. 60 minutes
T1 construct: purchased Enzo Life Science BML-SE456
Procedure, shortened: (§1)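 IC50 values derive from fluorescence (Ex 360, Em 460) after developer treatment (30 min) of reactions of recombinant human HDAC1 or HDAC6 with 10 μM Fluor de Lys-SIRT1 substrate (60 min, 30 °C). Compounds were serially diluted 5-fold; 0.3 μg enzyme was used for HDAC1, with HDAC6 tested identically.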

human recombinant HDAC6 = molecular target: T2, human recombinant HDAC6 (Homo sapiens, UniProt Q9UBN7); assay: HDAC6 enzyme activity inhibition assay (in vitro, fluorimetric); assay type: biochemical; settings: for HDAC6 selectivity (fold): HDAC6 selectivity over HDAC1; for IC50: human recombinant HDAC6, fluorimetric kit, same protocol as HDAC1
T2 construct: purchased Calbiochem 382180
T2 sequence (Q9UBN7 1-1215): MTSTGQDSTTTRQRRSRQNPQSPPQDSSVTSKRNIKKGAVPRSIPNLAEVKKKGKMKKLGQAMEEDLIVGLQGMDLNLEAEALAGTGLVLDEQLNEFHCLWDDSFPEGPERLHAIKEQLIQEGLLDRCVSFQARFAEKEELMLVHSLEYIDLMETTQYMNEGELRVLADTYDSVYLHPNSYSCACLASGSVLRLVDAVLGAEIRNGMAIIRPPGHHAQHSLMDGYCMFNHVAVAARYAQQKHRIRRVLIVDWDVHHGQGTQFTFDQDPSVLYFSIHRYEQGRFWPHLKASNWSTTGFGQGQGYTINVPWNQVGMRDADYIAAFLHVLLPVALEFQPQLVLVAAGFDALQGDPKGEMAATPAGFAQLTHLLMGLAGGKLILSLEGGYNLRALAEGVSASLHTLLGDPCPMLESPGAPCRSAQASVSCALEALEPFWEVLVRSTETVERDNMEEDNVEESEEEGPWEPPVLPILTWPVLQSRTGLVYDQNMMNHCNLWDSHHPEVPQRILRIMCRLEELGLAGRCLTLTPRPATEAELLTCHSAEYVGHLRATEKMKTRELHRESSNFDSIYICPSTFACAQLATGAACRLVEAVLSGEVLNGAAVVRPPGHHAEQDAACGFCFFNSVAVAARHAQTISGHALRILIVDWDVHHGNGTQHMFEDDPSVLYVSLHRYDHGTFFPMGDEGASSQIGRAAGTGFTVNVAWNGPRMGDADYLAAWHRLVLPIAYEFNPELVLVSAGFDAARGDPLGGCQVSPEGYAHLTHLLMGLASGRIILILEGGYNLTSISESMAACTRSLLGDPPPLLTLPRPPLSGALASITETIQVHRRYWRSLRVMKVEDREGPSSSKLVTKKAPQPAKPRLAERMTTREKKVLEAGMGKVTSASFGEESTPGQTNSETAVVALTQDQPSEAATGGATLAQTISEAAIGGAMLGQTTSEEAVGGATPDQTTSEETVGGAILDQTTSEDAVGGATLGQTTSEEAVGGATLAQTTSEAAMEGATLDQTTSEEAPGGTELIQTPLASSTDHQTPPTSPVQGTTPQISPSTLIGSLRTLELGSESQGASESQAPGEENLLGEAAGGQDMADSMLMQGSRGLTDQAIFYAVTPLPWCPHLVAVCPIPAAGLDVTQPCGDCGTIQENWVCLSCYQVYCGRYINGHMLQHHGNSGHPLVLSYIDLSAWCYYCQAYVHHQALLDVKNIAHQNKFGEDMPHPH
Procedure, shortened: as §1

T1 sequence (Q13547 whole entry): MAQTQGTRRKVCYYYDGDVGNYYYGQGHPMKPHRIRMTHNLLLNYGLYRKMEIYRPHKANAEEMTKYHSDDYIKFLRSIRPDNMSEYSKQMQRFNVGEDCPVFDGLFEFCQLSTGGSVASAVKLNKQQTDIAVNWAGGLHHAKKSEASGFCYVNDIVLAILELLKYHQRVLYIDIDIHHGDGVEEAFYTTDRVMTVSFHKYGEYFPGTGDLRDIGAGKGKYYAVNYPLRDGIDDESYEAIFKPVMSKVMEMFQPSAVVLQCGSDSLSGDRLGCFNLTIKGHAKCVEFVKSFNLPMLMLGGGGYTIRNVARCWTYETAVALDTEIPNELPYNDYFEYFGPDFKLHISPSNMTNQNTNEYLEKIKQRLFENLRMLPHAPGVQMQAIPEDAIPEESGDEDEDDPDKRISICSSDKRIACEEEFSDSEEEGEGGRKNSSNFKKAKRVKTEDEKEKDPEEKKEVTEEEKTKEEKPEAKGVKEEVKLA

Structure (SMILES) | IC50 (human recombinant HDAC1) [nM] | HDAC6 selectivity (fold) (human recombinant HDAC6) | IC50 (human recombinant HDAC6) [nM]
C[C@@H]1CN(Cc2ccc(C(=O)NO)cc2)C[C@H](C)N1Cc1cccc(-c2ccoc2)c1 [Compound 343, 4-(((3R,5S)-4-(3-(furan-3-yl)benzyl)-3,5-dimethylpiperazin-1-yl)methyl)-N-hydroxybenzamide] | 8800 | 328 | 27
C[C@@H]1CN(Cc2ccc(C(=O)NO)cc2)C[C@H](C)N1Cc1ccccc1Cl [Compound 127, 4-(((3R,5S)-4-(2-chlorobenzyl)-3,5-dimethylpiperazin-1-yl)methyl)-N-hydroxybenzamide] | > 10000 | >909 | 11
C[C@@H]1CN(Cc2ccc(C(=O)NO)cc2)C[C@H](C)N1Cc1ccc(-c2ccoc2)cc1 [Compound 309, 4-(((3R,5S)-4-(4-(furan-3-yl)benzyl)-3,5-dimethylpiperazin-1-yl)methyl)-N-hydroxybenzamide] | 1600 | 21 | 73
Cc1ccccc1NC(=O)N1[C@H](C)CN(Cc2ccc(C(=O)NO)cc2)C[C@@H]1C [Compound 160, (2S,6R)-4-(4-(hydroxycarbamoyl)benzyl)-2,6-dimethyl-N-o-tolylpiperazine-1-carboxamide] | 8800 | 177 | 50
C[C@@H]1CN(C(=O)c2cccs2)C[C@H](C)N1Cc1ccc(C(=O)NO)cc1 [Compound 114, 4-(((2S,6R)-2,6-dimethyl-4-(thiophene-2-carbonyl)piperazin-1-yl)methyl)-N-hydroxybenzamide] | 2400 | 13 | 185
C[C@@H]1CN(Cc2ccc(C(=O)NO)cc2)C[C@H](C)N1CC(F)(F)F [Compound 149, 4-(((3R,5S)-3,5-dimethyl-4-(2,2,2-trifluoroethyl)piperazin-1-yl)methyl)-N-hydroxybenzamide] | > 10000 | >125 | 80
C[C@@H]1CN(Cc2ccccc2-c2ccncc2)C[C@H](C)N1Cc1ccc(C(=O)NO)cc1 [Compound 350, 4-(((2S,6R)-2,6-dimethyl-4-(2-(pyridin-4-yl)benzyl)piperazin-1-yl)methyl)-N-hydroxybenzamide] | 3300 | 17 | 194

Continued by falling IC50 (human recombinant HDAC1), values first:

IC50 (human recombinant HDAC1) [nM] | HDAC6 selectivity (fold) (human recombinant HDAC6) | IC50 (human recombinant HDAC6) [nM] | Structure (SMILES)
4600 | 15 | 303 | C[C@@H]1CN(Cc2cccc(-n3cccc3)c2)C[C@H](C)N1Cc1ccc(C(=O)NO)cc1 [Compound 256, 4-(((2S,6R)-4-(3-(1H-pyrrol-1-yl)benzyl)-2,6-dimethylpiperazin-1-yl)methyl)-N-hydroxybenzamide]
3700 | 7 | 530 | C[C@@H]1CN(Cc2ccc(S(C)(=O)=O)cc2)C[C@H](C)N1Cc1ccc(C(=O)NO)cc1 [Compound 300, 4-(((2S,6R)-2,6-dimethyl-4-(4-(methylsulfonyl)benzyl)piperazin-1-yl)methyl)-N-hydroxybenzamide]
3200 | 53 | 61 | C[C@@H]1CN(Cc2ccc(C(=O)NO)cc2)C[C@H](C)N1C(=O)c1cc[nH]n1 [Compound 403, 4-(((3R,5S)-3,5-dimethyl-4-(1H-pyrazole-3-carbonyl)piperazin-1-yl)methyl)-N-hydroxybenzamide]
